What all share (format): functional
Assay [1] in a line: Cytotoxicity against human HL-60(TB) cells assessed as cell growth at 10 uM after 48 hrs by SRB assay. The note with it: HL-60, 48 h, read-out: Activity. A general note: The SRB assay estimates cell density from bound dye.
Another assay concerns SR. In words: Cytotoxicity against human SR cells assessed as cell growth at 10 uM after 48 hrs by SRB assay. To be noted: read-out: Activity.
The subject of a further assay is NCI-H460. In words: Cytotoxicity against human NCI-H460 cells assessed as cell growth at 10 uM after 48 hrs by SRB assay. The note with it: NCI-H460, 48 h, read-out: Activity.
Assay [2] deals with NCI-H522. In words: Cytotoxicity against human NCI-H522 cells assessed as cell growth at 10 uM after 48 hrs by SRB assay. To be noted: NCI-H522, 48 h, read-out: Activity.
The nature of assay [3]: Cytotoxicity against human COLO205 cells assessed as cell growth at 10 uM after 48 hrs by SRB assay. To be noted: COLO 205, 48 h, read-out: Activity.
Assay [4] can be described thus: Cytotoxicity against human HCC2998 cells assessed as cell growth at 10 uM after 48 hrs by SRB assay. To be noted: HCC 2998, 48 h, read-out: Activity.
Assay [5] can be described thus: Cytotoxicity against human SF539 cells assessed as cell growth at 10 uM after 48 hrs by SRB assay. To be noted: SF-539, 48 h, read-out: Activity.
Assay [6] can be described thus: Cytotoxicity against human UACC257 cells assessed as cell growth at 10 uM after 48 hrs by SRB assay. The note with it: UACC-257, 48 h, read-out: Activity.
Assay [7] is described as follows: Cytotoxicity against human OVCAR4 cells assessed as cell growth at 10 uM after 48 hrs by SRB assay. To be noted: OVCAR-4, 48 h, read-out: Activity.
Assay [8] is described as follows: Cytotoxicity against human NCI-ADR-RES cells assessed as cell growth at 10 uM after 48 hrs by SRB assay. To be noted: read-out: Activity.
Another assay concerns ACHN. In words: Cytotoxicity against human ACHN cells assessed as cell growth at 10 uM after 48 hrs by SRB assay. The note with it: read-out: Activity.
The nature of assay [9]: Cytotoxicity against human DU145 cells assessed as cell growth at 10 uM after 48 hrs by SRB assay. To be noted: DU-145, 48 h, read-out: Activity.
For the next assay, the system named is KM12. In words: Cytotoxicity against human KM12 cells assessed as cell growth at 7.25 uM after 48 hrs by SRB assay. To be noted: KM12, 48 h, read-out: Activity.
The nature of assay [10]: Cytotoxicity against human SW620 cells assessed as cell growth at 7.25 uM after 48 hrs by SRB assay. The note with it: SW-620, 48 h, read-out: Activity.
Assay [11] in a line: Cytotoxicity against human SF295 cells assessed as cell growth at 7.25 uM after 48 hrs by SRB assay. The note with it: SF-295, 48 h, read-out: Activity.
The nature of assay [12]: Cytotoxicity against human LOXIMVI cells assessed as cell growth at 7.25 uM after 48 hrs by SRB assay. The note with it: LOX IMVI, read-out: Activity.
The test system of the next assay is SK-MEL-28. In words: Cytotoxicity against human SK-MEL-28 cells assessed as cell growth at 7.25 uM after 48 hrs by SRB assay. To be noted: SK-MEL-28, 48 h, read-out: Activity.
Assay [13] can be described thus: Cytotoxicity against human IGROV1 cells assessed as cell growth at 7.25 uM after 48 hrs by SRB assay. The note with it: IGROV-1, 48 h, read-out: Activity.
A short description of assay [14]: Cytotoxicity against human OVCAR3 cells assessed as cell growth at 7.25 uM after 48 hrs by SRB assay. The note with it: OVCAR-3, 48 h, read-out: Activity.
A short description of assay [15]: Cytotoxicity against human OVCAR5 cells assessed as cell growth at 7.25 uM after 48 hrs by SRB assay. The note with it: OVCAR-5, 48 h, read-out: Activity.
A short description of assay [16]: Cytotoxicity against human SKOV3 cells assessed as cell growth at 7.25 uM after 48 hrs by SRB assay. The note with it: SK-OV-3, 48 h, read-out: Activity.
In a further assay the test system is A498. In words: Cytotoxicity against human A498 cells assessed as cell growth at 7.25 uM after 48 hrs by SRB assay. To be noted: A498, 48 h, read-out: Activity.
Assay [17] can be described thus: Cytotoxicity against human Caki1 cells assessed as cell growth at 7.25 uM after 48 hrs by SRB assay. The note with it: CAKI-1, 48 h, read-out: Activity.
Assay [18] is described as follows: Cytotoxicity against human BT549 cells assessed as cell growth at 7.25 uM after 48 hrs by SRB assay. To be noted: BT-549, 48 h, read-out: Activity.
A short description of assay [19]: Cytotoxicity against human HOP92 cells assessed as cell growth at 7.25 uM after 48 hrs by SRB assay. To be noted: HOP-92, 48 h, read-out: Activity.
Another assay concerns NCI-H322M. Kind of assay: Cytotoxicity against human NCI-H322M cells assessed as cell growth at 7.25 uM after 48 hrs by SRB assay. To be noted: read-out: Activity.
A further assay deals with SK-MEL-2. In words: Cytotoxicity against human SK-MEL-2 cells assessed as cell growth at 2.13 uM after 48 hrs by SRB assay. To be noted: SK-MEL-2, 48 h, read-out: Activity.
Assay [20] is described as follows: Cytotoxicity against human UACC257 cells assessed as cell growth at 2.13 uM after 48 hrs by SRB assay. The note with it: UACC-257, 48 h, read-out: Activity.
A short description of assay [21]: Cytotoxicity against human IGROV1 cells assessed as cell growth at 2.13 uM after 48 hrs by SRB assay. The note with it: IGROV-1, 48 h, read-out: Activity.
Assay [22] can be described thus: Cytotoxicity against human OVCAR8 cells assessed as cell growth at 2.13 uM after 48 hrs by SRB assay. The note with it: OVCAR-8, 48 h, read-out: Activity.
In a further assay the test system is MCF7. In words: Cytotoxicity against human MCF7 cells assessed as cell growth at 2.13 uM after 48 hrs by SRB assay. The note with it: MCF7, 48 h, read-out: Activity.
In the next assay the test system is MDA-MB-231. In words: Cytotoxicity against human MDA-MB-231 cells assessed as cell growth at 2.13 uM after 48 hrs by SRB assay. To be noted: MDA-MB-231, 48 h, read-out: Activity.
Assay [23] is described as follows: Cytotoxicity against human Hs 578T cells assessed as cell growth at 2.13 uM after 48 hrs by SRB assay. The note with it: read-out: Activity.
A further assay has as its system T47D. Kind of assay: Cytotoxicity against human T47D cells assessed as cell growth at 2.13 uM after 48 hrs by SRB assay. The note with it: read-out: Activity.
The next assay deals with MDA-MB-468. In words: Cytotoxicity against human MDA-MB-468 cells assessed as cell growth at 2.13 uM after 48 hrs by SRB assay. To be noted: MDA-MB-468, 48 h, read-out: Activity.
Assay [24] has as its system NCI-H522. In words: Cytotoxicity against human NCI-H522 cells assessed as cell mortality at 2.13 uM after 48 hrs by SRB assay. The note with it: NCI-H522, 48 h.
In a further assay the test system is NCI-H226. In words: Cytotoxicity against human NCI-H226 cells assessed as cell growth at 2.13 uM after 48 hrs by SRB assay. The note with it: NCI-H226, 48 h, read-out: Activity.
Assay [25] can be described thus: Cytotoxicity against human HCT15 cells assessed as cell growth at 2.13 uM after 48 hrs by SRB assay. The note with it: HCT-15, 48 h, read-out: Activity.
A further assay relates to HT-29. In words: Cytotoxicity against human HT-29 cells assessed as cell growth at 2.13 uM after 48 hrs by SRB assay. The note with it: HT-29, 48 h, read-out: Activity.

Take `CC(C)C[C@H](NC(=O)[C@H](CCCCN)NC(=O)[C@H](C)NC(=O)[C@H](CC(C)C)NC(=O)[C@H](CCCCN)NC(=O)[C@H](CCCCN)NC(=O)[C@H](C)NC(=O)[C@H](CC(C)C)NC(=O)[C@H](CCCCN)NC(=O)[C@H](C)NC(=O)[C@H](CC(C)C)NC(=O)[C@H](CCCCN)NC(=O)[C@@H](N)CC(=O)O)C(=O)N[C@@H](C)C(=O)N[C@@H](CCCCN)C(=O)N[C@@H](C)C(=O)N[C@@H](CCCCN)C(N)=O`: the growth at 10 µM amounted to 99.5% in assay [1]; 85% with SR; 117% in the assay with NCI-H460; 86.4% in the assay with NCI-H522 [2]; 114% in assay [3]; 100% in assay [4]. The growth at 10 µM in [5] turned out to be 98%; in assay [6] it was 71.8%; in [7] it was 109%; in assay [8], 105%; in the assay on ACHN, 107%; in assay [9] it was 109%.
For `CCCCCCCCCCCCCCCC(=O)NCCCC[C@H](NC(=O)[C@H](C)NC(=O)[C@H](CCCCN)NC(=O)[C@H](C)NC(=O)[C@H](CC(C)C)NC(=O)[C@H](CCCCN)NC(=O)[C@H](C)NC(=O)[C@H](CC(C)C)NC(=O)[C@H](CCCCN)NC(=O)[C@H](CCCCN)NC(=O)[C@H](C)NC(=O)[C@H](CC(C)C)NC(=O)[C@H](CCCCN)NC(=O)[C@H](C)NC(=O)[C@H](CC(C)C)NC(=O)[C@H](CCCCN)NC(=O)[C@@H](N)CC(=O)O)C(N)=O`, the growth at 7.25 µM came out at 110% in the assay with KM12; 107% in assay [10]; 110% in assay [11]; 95.6% in [12]; 106% with SK-MEL-28; 108% in [13]. Besides, the growth at 7.25 µM in assay [14] turned out to be 122%; in [15], 105%; in assay [16] it was 99.8%; with A498, 111%; in [17], 98.3%; in assay [18], 104%. Further, the growth at 7.25 µM was determined as 113% in assay [19] and 108% in the assay with NCI-H322M.
For `CCCCCCCCCCCCCCCCNCCO[C@H]1C[C@H](n2cc(C)c(=O)[nH]c2=O)O[C@@H]1C(=O)NCCCC[C@H](NC(=O)[C@H](C)NC(=O)[C@H](CCCCN)NC(=O)[C@H](C)NC(=O)[C@H](CC(C)C)NC(=O)[C@H](CCCCN)NC(=O)[C@H](C)NC(=O)[C@H](CC(C)C)NC(=O)[C@H](CCCCN)NC(=O)[C@H](CCCCN)NC(=O)[C@H](C)NC(=O)[C@H](CC(C)C)NC(=O)[C@H](CCCCN)NC(=O)[C@H](C)NC(=O)[C@H](CC(C)C)NC(=O)[C@H](CCCCN)NC(=O)[C@@H](N)CC(=O)O)C(N)=O`, the growth at 2.13 µM turned out to be 111% with SK-MEL-2; 75.8% in assay [20]; 107% in assay [21]; 96.8% in assay [22]; 98.9% in the assay with MCF7; 101% with MDA-MB-231. Also, the growth at 2.13 µM was determined as 101% in assay [23]; 91.6% with T47D; 100% in the assay on MDA-MB-468; 96.5% with NCI-H226; 104% in assay [25]; 102% in the assay on HT-29. Also, the mortality (usually the percentage killed) at 2.13 µM in the assay on NCI-H522 [24] came to 11%.

Values taken from ChEMBL document CHEMBL3822390, “Synthesis, characterization and anti-cancer activity of a peptide nucleolipid bioconjugate” (2016).
